According to BindingDB's records for doi:10.1021/acs.jmedchem.5b01516 (Centre Hospitalier Universitaire Vaudois (Chuv), 2016):

Target: Presenilin-1 (Homo sapiens, UniProt P49768)
Assay: Inhibition of gamma secretase (unknown origin)

IC50: 11 nM
Structure (SMILES): CC(C)[C@H](O)C(=O)N[C@@H](C)C(=O)NC1C(=O)N(C)CCc2ccccc21 (stereo partly drawn) [(2S)-2-hydroxy-3-methyl-N-[(1S)-1-{[(1S)-3-methyl-2-oxo-2,3,4,5-tetrahydro-1H-3-benzazepin-1-yl]carbamoyl}ethyl]butanamide]
